This test concerns the target T1, hyaluronidase type I-S from bovine testes (BTH; Hyal) (Bos taurus, UniProt Q2YDK3).
T1 construct: gene SPAM1; commercial unlabeled enzyme from bovine testes
T1 sequence (Q2YDK3 36-553): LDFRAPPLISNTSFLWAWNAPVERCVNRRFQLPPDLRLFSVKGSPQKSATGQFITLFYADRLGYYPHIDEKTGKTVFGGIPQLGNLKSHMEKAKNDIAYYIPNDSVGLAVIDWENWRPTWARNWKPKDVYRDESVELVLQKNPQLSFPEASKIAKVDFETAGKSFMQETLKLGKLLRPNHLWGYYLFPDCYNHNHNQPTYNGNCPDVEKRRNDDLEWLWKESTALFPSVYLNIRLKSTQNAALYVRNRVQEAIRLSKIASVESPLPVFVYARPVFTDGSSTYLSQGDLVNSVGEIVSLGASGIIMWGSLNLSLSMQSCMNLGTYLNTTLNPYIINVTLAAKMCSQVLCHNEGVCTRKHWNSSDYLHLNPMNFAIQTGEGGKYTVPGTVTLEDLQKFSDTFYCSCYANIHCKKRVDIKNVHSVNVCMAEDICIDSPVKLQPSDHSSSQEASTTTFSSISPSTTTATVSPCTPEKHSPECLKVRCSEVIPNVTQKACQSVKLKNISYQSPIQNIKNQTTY
The test is described as follows: CE-UV enzymatic assay of hyaluronic acid degradation; inhibition at […] without trehalose ([…] with […] trehalose). The test is classed as biochemical. To be noted: read-out: Inhibition at 1 mg/mL-Equation (1) / 0% Trehalose.

SMILES strings stand for the structures.

As for `O=c1cc(-c2ccc(O)cc2)oc2cc(O[C@@H]3O[C@H](CO)[C@@H](O)[C@H](O)[C@H]3O)cc(O)c12` [apigenin-7-glucoside], the inhibition at 1000 µg/mL was determined as 25 ± 5%.

(Values after article PMC12525580, “Impacts of Tween-20, Glycerol, and Trehalose on Hyaluronidase Activity: Insights from Microscale Thermophoresis and Capillary Electrophoresis” (Molecules, 2025).)
